In publication PMC3969223, “Characterization of WZ4003 and HTH-01-015 as selective inhibitors of the LKB1-tumour-suppressor-activated NUAK kinases” (Biochemical Journal, 2013):

Columns and labels:
[1] = tested on: MYPT1 Ser445 phosphorylation; assay: MYPT1 Ser445 phosphorylation, HEK-293 Flp/In T-Rex overexpressing HA-NUAK1[A195T]; format: cell-based, human; details: cells expressing drug-resistant NUAK1[A195T]; 30 μM
Method: HEK (human embryonic kidney)-293 and U2OS cells were cultured in DMEM (Dulbecco's modified Eagle's medium) supplemented with 10% FBS, 2 mM glutamine and 1×antibacterial/antimycotic solution. NUAK1^+/+ and NUAK1^−/− MEFs were cultured in DMEM supplemented with 10% (v/v) FBS and 2 mM glutamine, 1×antibacterial/antimycotic solution, 1% (v/v) non-essential amino acids and 1% (v/v) sodium pyruvate. HEK-293 Flp/In T-Rex cell lines were cultured in DMEM supplemented with 10% (v/v) FBS and 2 mM glutamine, 1×antibacterial/antimycotic solution, 100 μg/ml hygromycin and 15 μg/ml blasticidin. Supplementing the culture medium with 0.1 μg/ml doxycycline for 16–24 h induced protein expression in the HEK-293 Flp/In T-Rex cells. Cell counting was carried out using Invitrogen Countess following the manufacturer's protocol. A cell-detachment assay was carried out on HEK-293 cells using PBS-EDTA-based cell dissociation buffer as described previously. An inhibitor dose-dependence assay was carried out by treating the cells with various concentrations of the inhibitors as indicated in the Figure legends. The inhibitors were dissolved in DMSO and the total concentration of DMSO in the culture media never exceeded 1%. Transient transfections of HEK-293 cells were carried out using PEI [24]. Stable transfections were carried out in HEK-293 Flp/In T-Rex cells (Invitrogen) following the manufacturer's protocol. […]

CK1δ = CK1δ (Homo sapiens, UniProt P48730); assay: Kinase profiling; format: biochemical; details: 0.1 or 1 μM inhibitor; mean of triplicate
Summary of the method: (§1)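 140-kinase in vitro panel; compound 0.1 or 1 μM; triplicate reactions. Output given as remaining activity (% of DMSO control) ±S.D.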

DAPK1 = DAPK1 (Homo sapiens, UniProt P53355); assay: Kinase profiling; format: biochemical; details: 0.1 or 1 μM inhibitor; mean of triplicate
Summary of the method: as §1

DYRK3 = DYRK3 (Homo sapiens, UniProt O43781); assay: Kinase profiling; format: biochemical; details: 0.1 or 1 μM inhibitor; mean of triplicate
Summary of the method: as §1

ERK1 = ERK1 (Homo sapiens, UniProt P27361); assay: Kinase profiling; format: biochemical; details: 0.1 or 1 μM inhibitor; mean of triplicate
Summary of the method: as §1

ERK5 = ERK5 (Homo sapiens, UniProt Q13164); assay: Kinase profiling; format: biochemical; details: 0.1 or 1 μM inhibitor; mean of triplicate
Summary of the method: as §1

GCK = GCK (Homo sapiens, UniProt Q12851); assay: Kinase profiling; format: biochemical; details: 0.1 or 1 μM inhibitor; mean of triplicate
IR = IR (Homo sapiens, UniProt P06213); assay: Kinase profiling; format: biochemical; details: 0.1 or 1 μM inhibitor; mean of triplicate
Summary of the method: as §1

IRAK1 = IRAK1 (Homo sapiens, UniProt P51617); assay: Kinase profiling; format: biochemical; details: 0.1 or 1 μM inhibitor; mean of triplicate
Summary of the method: as §1

JNK1 = JNK1 (Homo sapiens, UniProt P45983); assay: Kinase profiling; format: biochemical; details: 0.1 or 1 μM inhibitor; mean of triplicate
MAPKAP-K2 = MAPKAP-K2 (Homo sapiens, UniProt P49137); assay: Kinase profiling; format: biochemical; details: 0.1 or 1 μM inhibitor; mean of triplicate
Summary of the method: as §1

MNK2 = MNK2 (Homo sapiens, UniProt Q9HBH9); assay: Kinase profiling; format: biochemical; details: 0.1 or 1 μM inhibitor; mean of triplicate
Summary of the method: as §1

OSR1 = OSR1 (Homo sapiens, UniProt O95747); assay: Kinase profiling; format: biochemical; details: 0.1 or 1 μM inhibitor; mean of triplicate
Summary of the method: as §1

PAK4 = PAK4 (Homo sapiens, UniProt O96013); assay: Kinase profiling; format: biochemical; details: 0.1 or 1 μM inhibitor; mean of triplicate
PLK1 = PLK1 (Homo sapiens, UniProt P53350); assay: Kinase profiling; format: biochemical; details: 0.1 or 1 μM inhibitor; mean of triplicate
PRK2 = PRK2 (Homo sapiens, UniProt Q16513); assay: Kinase profiling; format: biochemical; details: 0.1 or 1 μM inhibitor; mean of triplicate
TTBK2 = TTBK2 (Homo sapiens, UniProt Q6IQ55); assay: Kinase profiling; format: biochemical; details: 0.1 or 1 μM inhibitor; mean of triplicate
Summary of the method: as §1

TTK = TTK (Homo sapiens, UniProt P33981); assay: Kinase profiling; format: biochemical; details: 0.1 or 1 μM inhibitor; mean of triplicate
Summary of the method: as §1

p38δ MAPK = p38δ MAPK (Homo sapiens, UniProt O15264); assay: Kinase profiling; format: biochemical; details: 0.1 or 1 μM inhibitor; mean of triplicate
Summary of the method: as §1

PINK = PINK (Tribolium castaneum, UniProt D6WMX4); assay: Kinase profiling; format: biochemical, insect; details: 0.1 or 1 μM inhibitor; mean of triplicate
Method: Kinase inhibitor specificity profiling assays were carried out at The International Centre for Protein Kinase Profiling (http://www.kinase-screen.mrc.ac.uk/) against a panel of 140 protein kinases as described previously. Results are presented as a percentage of kinase activity in DMSO control reactions. Protein kinases were assayed in vitro with 0.1 or 1 μM of the inhibitors and the results are presented as an average of triplicate reactions±S.D. or in the form of comparative histograms.

ULK2 = ULK2 (Homo sapiens, UniProt Q8IYT8); assay: Kinase profiling; format: biochemical; details: 0.1 or 1 μM inhibitor; mean of triplicate
Summary of the method: as §1

PLK1, sequence (P53350 whole entry): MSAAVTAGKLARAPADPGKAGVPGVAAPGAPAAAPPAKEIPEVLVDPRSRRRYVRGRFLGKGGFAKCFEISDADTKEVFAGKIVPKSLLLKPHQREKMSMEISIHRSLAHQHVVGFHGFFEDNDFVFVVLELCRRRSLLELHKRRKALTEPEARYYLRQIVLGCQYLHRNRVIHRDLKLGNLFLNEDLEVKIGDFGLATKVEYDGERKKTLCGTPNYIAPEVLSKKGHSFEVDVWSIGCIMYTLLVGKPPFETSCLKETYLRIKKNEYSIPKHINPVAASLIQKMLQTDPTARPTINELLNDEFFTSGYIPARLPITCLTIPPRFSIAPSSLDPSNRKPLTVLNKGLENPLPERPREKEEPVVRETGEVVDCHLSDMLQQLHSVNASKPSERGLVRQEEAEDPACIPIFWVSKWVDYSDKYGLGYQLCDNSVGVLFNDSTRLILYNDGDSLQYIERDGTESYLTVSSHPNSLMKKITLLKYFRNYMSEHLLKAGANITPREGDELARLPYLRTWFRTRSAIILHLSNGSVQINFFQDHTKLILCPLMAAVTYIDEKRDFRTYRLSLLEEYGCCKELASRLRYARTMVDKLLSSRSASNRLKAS
ERK5, sequence (Q13164 whole entry): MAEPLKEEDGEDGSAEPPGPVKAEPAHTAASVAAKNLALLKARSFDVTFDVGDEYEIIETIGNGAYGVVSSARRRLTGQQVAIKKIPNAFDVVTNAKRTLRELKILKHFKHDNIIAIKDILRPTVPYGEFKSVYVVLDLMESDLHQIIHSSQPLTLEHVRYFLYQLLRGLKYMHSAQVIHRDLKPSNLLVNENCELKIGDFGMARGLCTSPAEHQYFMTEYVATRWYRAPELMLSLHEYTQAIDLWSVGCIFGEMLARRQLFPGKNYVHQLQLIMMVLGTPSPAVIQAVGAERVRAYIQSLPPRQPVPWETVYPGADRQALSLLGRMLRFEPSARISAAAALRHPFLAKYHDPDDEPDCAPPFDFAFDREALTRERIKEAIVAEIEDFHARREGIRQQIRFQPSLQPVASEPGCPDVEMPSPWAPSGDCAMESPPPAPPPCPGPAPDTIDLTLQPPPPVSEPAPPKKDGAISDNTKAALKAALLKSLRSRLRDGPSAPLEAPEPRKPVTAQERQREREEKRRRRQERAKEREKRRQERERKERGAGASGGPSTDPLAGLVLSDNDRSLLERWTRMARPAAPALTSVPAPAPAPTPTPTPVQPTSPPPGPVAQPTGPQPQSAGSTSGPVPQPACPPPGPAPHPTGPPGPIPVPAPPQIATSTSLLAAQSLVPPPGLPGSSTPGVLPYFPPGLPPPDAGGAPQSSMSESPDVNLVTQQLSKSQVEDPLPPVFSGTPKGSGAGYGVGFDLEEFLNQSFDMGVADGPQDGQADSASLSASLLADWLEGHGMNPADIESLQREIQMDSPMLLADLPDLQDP
IRAK1, sequence (P51617 whole entry): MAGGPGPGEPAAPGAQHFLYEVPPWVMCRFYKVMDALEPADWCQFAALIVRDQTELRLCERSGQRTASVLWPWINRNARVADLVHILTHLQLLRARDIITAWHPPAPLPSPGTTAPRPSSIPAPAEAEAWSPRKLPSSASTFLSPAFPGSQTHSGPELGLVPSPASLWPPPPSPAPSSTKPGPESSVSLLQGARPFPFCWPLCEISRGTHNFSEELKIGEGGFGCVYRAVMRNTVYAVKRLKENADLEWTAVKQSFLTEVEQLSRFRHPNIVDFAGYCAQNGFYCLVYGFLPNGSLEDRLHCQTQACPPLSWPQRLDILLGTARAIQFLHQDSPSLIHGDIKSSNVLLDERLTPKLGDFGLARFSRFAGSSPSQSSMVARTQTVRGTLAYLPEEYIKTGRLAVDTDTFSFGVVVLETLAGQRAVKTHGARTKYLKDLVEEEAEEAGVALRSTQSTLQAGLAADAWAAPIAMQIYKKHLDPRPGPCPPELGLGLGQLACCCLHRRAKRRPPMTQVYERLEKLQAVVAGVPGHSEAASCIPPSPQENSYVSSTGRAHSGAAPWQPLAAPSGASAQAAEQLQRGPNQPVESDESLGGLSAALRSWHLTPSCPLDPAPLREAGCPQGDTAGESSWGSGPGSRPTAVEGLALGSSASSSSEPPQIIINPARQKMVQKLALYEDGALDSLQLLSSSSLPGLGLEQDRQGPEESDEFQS
PINK, sequence (D6WMX4 whole entry): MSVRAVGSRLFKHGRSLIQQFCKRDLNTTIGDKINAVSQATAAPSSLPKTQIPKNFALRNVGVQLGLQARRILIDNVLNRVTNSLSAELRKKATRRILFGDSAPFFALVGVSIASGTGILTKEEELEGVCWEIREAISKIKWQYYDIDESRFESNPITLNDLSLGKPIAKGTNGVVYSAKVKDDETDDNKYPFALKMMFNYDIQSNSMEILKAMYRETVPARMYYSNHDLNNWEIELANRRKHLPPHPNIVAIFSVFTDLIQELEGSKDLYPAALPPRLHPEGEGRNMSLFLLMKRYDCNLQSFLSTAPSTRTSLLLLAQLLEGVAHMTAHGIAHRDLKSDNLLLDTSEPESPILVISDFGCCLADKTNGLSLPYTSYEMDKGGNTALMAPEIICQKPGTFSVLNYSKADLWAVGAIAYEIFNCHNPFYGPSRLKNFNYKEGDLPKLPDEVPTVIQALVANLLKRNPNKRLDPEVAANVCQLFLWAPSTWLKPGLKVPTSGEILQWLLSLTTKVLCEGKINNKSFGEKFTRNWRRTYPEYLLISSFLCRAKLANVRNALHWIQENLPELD
OSR1, sequence (O95747 whole entry): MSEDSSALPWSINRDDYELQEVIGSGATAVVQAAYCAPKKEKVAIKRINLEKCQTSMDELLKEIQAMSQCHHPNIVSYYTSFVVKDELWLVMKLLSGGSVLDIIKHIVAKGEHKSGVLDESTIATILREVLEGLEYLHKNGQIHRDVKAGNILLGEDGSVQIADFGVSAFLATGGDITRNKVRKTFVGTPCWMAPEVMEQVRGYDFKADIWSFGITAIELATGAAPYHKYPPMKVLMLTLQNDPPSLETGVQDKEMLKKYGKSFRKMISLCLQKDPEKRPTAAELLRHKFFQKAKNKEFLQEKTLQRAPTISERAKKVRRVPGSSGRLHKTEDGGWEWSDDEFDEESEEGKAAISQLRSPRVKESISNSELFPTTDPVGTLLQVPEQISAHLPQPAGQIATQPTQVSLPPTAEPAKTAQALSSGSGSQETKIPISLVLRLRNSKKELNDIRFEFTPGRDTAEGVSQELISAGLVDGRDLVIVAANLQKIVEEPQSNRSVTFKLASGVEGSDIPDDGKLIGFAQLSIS
DAPK1, sequence (P53355 whole entry): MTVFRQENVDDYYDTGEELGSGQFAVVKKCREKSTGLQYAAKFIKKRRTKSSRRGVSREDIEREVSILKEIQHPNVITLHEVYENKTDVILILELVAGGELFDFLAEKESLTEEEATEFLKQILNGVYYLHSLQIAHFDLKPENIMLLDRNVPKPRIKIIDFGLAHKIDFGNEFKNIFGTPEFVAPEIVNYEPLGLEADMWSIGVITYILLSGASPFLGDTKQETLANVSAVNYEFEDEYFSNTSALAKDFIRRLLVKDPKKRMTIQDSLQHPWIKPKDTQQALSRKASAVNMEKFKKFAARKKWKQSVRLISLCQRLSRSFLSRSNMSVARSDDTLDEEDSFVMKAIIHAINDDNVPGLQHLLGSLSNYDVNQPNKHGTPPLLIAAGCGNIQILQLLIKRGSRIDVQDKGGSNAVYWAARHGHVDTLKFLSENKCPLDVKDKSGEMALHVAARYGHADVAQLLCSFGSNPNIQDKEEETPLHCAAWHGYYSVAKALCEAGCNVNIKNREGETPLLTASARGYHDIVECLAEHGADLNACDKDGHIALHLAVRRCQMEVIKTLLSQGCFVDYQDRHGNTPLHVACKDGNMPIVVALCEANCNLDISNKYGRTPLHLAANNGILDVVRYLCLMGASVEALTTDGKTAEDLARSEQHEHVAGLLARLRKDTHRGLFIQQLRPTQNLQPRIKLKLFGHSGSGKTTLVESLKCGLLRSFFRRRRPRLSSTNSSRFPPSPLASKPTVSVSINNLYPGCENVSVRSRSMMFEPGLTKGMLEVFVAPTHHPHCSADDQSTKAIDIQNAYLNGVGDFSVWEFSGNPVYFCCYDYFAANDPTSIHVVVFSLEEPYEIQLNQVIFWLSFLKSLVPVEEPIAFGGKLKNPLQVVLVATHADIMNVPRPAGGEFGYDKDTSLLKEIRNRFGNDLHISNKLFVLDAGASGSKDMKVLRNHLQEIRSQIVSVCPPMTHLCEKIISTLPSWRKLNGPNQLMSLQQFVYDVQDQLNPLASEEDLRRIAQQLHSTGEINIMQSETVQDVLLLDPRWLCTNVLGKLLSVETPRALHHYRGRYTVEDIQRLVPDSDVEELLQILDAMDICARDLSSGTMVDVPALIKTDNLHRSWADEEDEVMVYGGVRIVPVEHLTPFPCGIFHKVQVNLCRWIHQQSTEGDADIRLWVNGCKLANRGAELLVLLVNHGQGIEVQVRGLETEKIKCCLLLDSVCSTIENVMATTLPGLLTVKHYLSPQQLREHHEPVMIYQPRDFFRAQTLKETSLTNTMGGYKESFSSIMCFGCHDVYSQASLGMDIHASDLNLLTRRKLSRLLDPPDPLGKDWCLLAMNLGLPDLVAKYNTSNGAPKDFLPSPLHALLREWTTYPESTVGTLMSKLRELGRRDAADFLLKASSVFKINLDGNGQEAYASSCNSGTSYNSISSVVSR
MAPKAP-K2, sequence (P49137 whole entry): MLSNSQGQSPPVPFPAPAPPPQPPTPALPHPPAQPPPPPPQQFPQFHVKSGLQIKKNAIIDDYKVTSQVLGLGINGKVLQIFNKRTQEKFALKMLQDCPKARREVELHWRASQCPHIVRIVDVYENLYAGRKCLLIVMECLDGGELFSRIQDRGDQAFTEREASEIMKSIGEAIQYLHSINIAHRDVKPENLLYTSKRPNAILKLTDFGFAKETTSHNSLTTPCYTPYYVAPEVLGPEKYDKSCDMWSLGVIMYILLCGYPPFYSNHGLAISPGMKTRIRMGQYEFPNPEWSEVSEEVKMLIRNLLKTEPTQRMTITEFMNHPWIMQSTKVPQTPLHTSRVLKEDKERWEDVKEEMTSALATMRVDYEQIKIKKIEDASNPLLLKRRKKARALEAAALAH

SMILES: Cc1nc(Nc2cnn(C3CCNCC3)c2)nc2c1N(C)C(=O)c1cc3ccccc3cc1N2C [HTH-01-015]
- Block of MYPT1 Ser445 phosphorylation (in words) [1]: failed to block
- CK1δ activity, percentage of DMSO control (CK1δ): 94 percentage
- DAPK1 activity, percentage of DMSO control (DAPK1): 100 percentage
- DYRK3 activity, percentage of DMSO control (DYRK3): 98 percentage
- ERK1 activity, percentage of DMSO control (ERK1): 83 percentage
- ERK5 activity, percentage of DMSO control (ERK5): 121 percentage
- GCK activity, percentage of DMSO control (GCK): 126 percentage
- IR activity, percentage of DMSO control (IR): 105 percentage
- IRAK1 activity, percentage of DMSO control (IRAK1): 103 percentage
- JNK1 activity, percentage of DMSO control (JNK1): 100 percentage
- MAPKAP-K2 activity, percentage of DMSO control (MAPKAP-K2): 118 percentage
- MNK2 activity, percentage of DMSO control (MNK2): 106 percentage
- OSR1 activity, percentage of DMSO control (OSR1): 107 percentage
- PAK4 activity, percentage of DMSO control (PAK4): 110 percentage
- PLK1 activity, percentage of DMSO control (PLK1): 98 percentage
- PRK2 activity, percentage of DMSO control (PRK2): 112 percentage
- TTBK2 activity, percentage of DMSO control (TTBK2): 102 percentage
- TTK activity, percentage of DMSO control (TTK): 118 percentage
- p38δ MAPK activity, percentage of DMSO control (p38δ MAPK): 113 percentage
- PINK activity, percentage of DMSO control (PINK): 99 percentage

SMILES: CCC(=O)Nc1cccc(Oc2nc(Nc3ccc(N4CCN(C)CC4)cc3OC)ncc2Cl)c1 [WZ4003]
- Block of MYPT1 Ser445 phosphorylation (in words) [1]: failed to block
- ULK2 activity, percentage of DMSO control (ULK2): 37 percentage
